Laboratory results published in patent publication US20250304537A1 (Repare Therapeutics Inc., priority 2022, published 2025).
pIC50: −log10 of the molar value.

System: PKMYT1 (CDK1 pThr14) in FUOV1 cells
Assay: PKMYT1 cell-based activity assay, CDK1 pThr14 AlphaLISA in FUOV1 cells
Details: 2 h, 2 h compound incubation, read-out: FUOV-1 CDK1 pThr14 IC50
Summary of the method: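 FUOV1 cells were treated with PKMYT1 inhibitor for 2 h at 37 °C, then lysed. CDK1 pThr14 was measured by AlphaLISA, pairing an anti-pThr14 antibody with an anti-total CDK1 antibody (5 nM each). Signal read at 680/615 nm and used to derive IC50.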

Row | pIC50 | Compound
1 | 8.52 | Cc1ccc2[nH]ncc2c1-c1nc(-c2ccc(F)cc2Nc2ccncc2)nc(C(N)=O)c1N [Compound 533]
2 | 7.57 | Cc1ccc2[nH]ncc2c1-c1nc(-c2cnccc2NCC(F)(F)F)nc(C(N)=O)c1N [Compound 520, 5-amino-6-(5-methyl-1H-indazol-4-yl)-2-(4-((2,2,2-trifluoroethyl)amino)pyridin-3-yl)pyrimidine-4-carboxamide]
3 | 8.22 | Cc1ccc(-c2nc(C(N)=O)c(N)c(-c3c(C)ccc4[nH]ncc34)n2)c(Nc2nc(C)cnc2C)n1 [Compound 689]
4 | 7.21 | Cc1ccc2[nH]ncc2c1-c1nc(-c2ccc(F)nc2N[C@H]2C[C@@](C)(O)C2)nc(C(N)=O)c1N [Compound 791]
5 | 6.32 | Cc1ccc(-c2nc(C(N)=O)c(N)c(-c3c(C)ccc4[nH]ncc34)n2)c(Nc2cncc(Cl)n2)n1 [Compound 725]
6 | 7.23 | Cc1ccc2[nH]ncc2c1-c1nc(-c2cccnc2Nc2cncc(F)n2)nc(C(N)=O)c1N [Compound 753]
7 | 6.91 | CSc1nccc(Nc2cc(F)ccc2-c2nc(C(N)=O)c(N)c(-c3c(C)ccc4[nH]ncc34)n2)n1 [Compound 583]
8 | 6.74 | Cc1cncc(Nc2nc(C)ccc2-c2nc(C(N)=O)c(N)c(-c3c(C)ccc4[nH]ncc34)n2)n1 [Compound 688]
9 | 6.57 | Cc1cnc(Nc2cc(F)ccc2-c2nc(C(N)=O)c(N)c(-c3c(C)ccc4[nH]ncc34)n2)nc1 [Compound 523]
10 | < 5.00 | Cc1ccc2[nH]ncc2c1-c1nc(-c2cnncc2NCC(F)(F)F)nc(C(N)=O)c1N [Compound 669]
11 | 7.06 | Cc1ccnc(Nc2cc(F)ccc2-c2nc(C(N)=O)c(N)c(-c3c(C)ccc4[nH]ncc34)n2)n1 [Compound 534]
12 | 7.12 | Cc1ccc2[nH]ncc2c1-c1nc(-c2cc(F)c(C#N)cc2Nc2ncccn2)nc(C(N)=O)c1N [Compound 761]
13 | 7.66 | Cc1ccc2[nH]ncc2c1-c1nc(-c2cc(F)ccc2Nc2cccnn2)nc(C(N)=O)c1N [Compound 489]
14 | 7.30 | Cc1ccc2[nH]ncc2c1-c1nc(-c2cccnc2N[C@@H]2CCOC2)nc(C(N)=O)c1N [Compound 547]
15 | 8.22 | Cc1cccnc1Nc1nc(Cl)ccc1-c1nc(C(N)=O)c(N)c(-c2c(C)ccc3[nH]ncc23)n1 [Compound 736, 5-amino-2-(6-chloro-2-((3-methylpyridin-2-yl)amino)pyridin-3-yl)-6-(5-methyl-1H-indazol-4-yl)pyrimidine-4-carboxamide]
16 | 7.04 | Cc1ccc(Nc2ncccn2)c(-c2nc(C(N)=O)c(N)c(-c3c(C)ccc4[nH]ncc34)n2)c1 [Compound 646]
17 | 6.22 | COc1ccccc1Nc1ncccc1-c1nc(C(N)=O)c(N)c(-c2c(C)ccc3[nH]ncc23)n1 [Compound 632]
18 | 8.00 | Cc1ccc2[nH]ncc2c1-c1nc(-c2cccnc2N[C@H]2CCOC[C@H]2F)nc(C(N)=O)c1N [Compound 644]
19 | 6.64 | Cc1ccc2[nH]ncc2c1-c1nc(-c2cc(F)cnc2NCC2(O)CCC2)nc(C(N)=O)c1N [Compound 691]
20 | 7.68 | Cc1ccc2[nH]ncc2c1-c1nc(-c2ccc(F)cc2Nc2nccc(C#N)n2)nc(C(N)=O)c1N [Compound 532]
21 | 6.80 | Cc1ccc2[nH]ncc2c1-c1nc(-c2cccnc2Nc2ccccc2Cl)nc(C(N)=O)c1N [Compound 629]
22 | 6.94 | Cc1ccc2[nH]ncc2c1-c1nc(-c2cc(F)c(F)cc2NC2CNC2)nc(C(N)=O)c1N [Compound 486]
23 | < 5.00 | Cc1ccc2[nH]ncc2c1-c1nc(-c2cccnc2N2CCOCC2)nc(C(N)=O)c1N [Compound 662]
24 | 7.92 | Cc1ccc2[nH]ncc2c1-c1nc(-c2cccnc2N[C@H]2CCCOC2)nc(C(N)=O)c1N [Compound 546]
25 | 6.53 | Cc1ccc2[nH]ncc2c1-c1nc(-c2cccnc2NCC2CCOCC2)nc(C(N)=O)c1N [Compound 593]
26 | 7.51 | Cc1ccc2[nH]ncc2c1-c1nc(-c2cc(F)cnc2NCC(F)F)nc(C(N)=O)c1N [Compound 504]
27 | 7.89 | Cc1ccc(F)nc1Nc1ncccc1-c1nc(C(N)=O)c(N)c(-c2c(C)ccc3[nH]ncc23)n1 [Compound 724]
28 | 7.32 | Cc1ccc2[nH]ncc2c1-c1nc(-c2cc(F)cnc2N[C@H]2C[C@@](C)(O)C2)nc(C(N)=O)c1N [Compound 733, 5-amino-2-(5-fluoro-2-(((1s,3s)-3-hydroxy-3-methylcyclobutyl)amino)pyridin-3-yl)-6-(5-methyl-1H-indazol-4-yl)pyrimidine-4-carboxamide]
29 | 7.89 | Cc1ccc2[nH]ncc2c1-c1nc(-c2cc(F)cnc2NC(C)C)nc(C(N)=O)c1N [Compound 679]

Same assay, conditions: 2 h, 2 hours with compound, read-out: FUOV-1 CDK1 pThr14 IC50

Row | Compound | pIC50
30 | Cc1c(F)cc2[nH]ncc2c1-c1nc(-c2cc(F)cnc2N[C@H]2CCOC2)nc(C(N)=O)c1N [Compound 847] | 7.66
31 | Cc1ccc2[nH]ncc2c1-c1nc(-c2cc(F)cnc2NC2CCN(CC(F)F)CC2)nc(C(N)=O)c1N [Compound 876] | 6.13
32 | Cc1ccc2[nH]ncc2c1-c1nc(-c2cc(F)cnc2N[C@@H]2CC[C@H](O)C2)nc(C(N)=O)c1N [Compound 833] | 7.33
33 | Cc1ccc2[nH]ncc2c1-c1nc(-c2ccc(Cl)nc2NC2CC(F)(F)C2)nc(C(N)=O)c1N [Compound 802] | 6.13
34 | Cc1ccc2[nH]ncc2c1-c1nc(-c2cccnc2Nc2ncccc2F)cc(C(N)=O)c1N [Compound 846] | 7.92
35 | Cc1ccc2[nH]ncc2c1-c1nc(-c2ccc(C#N)cc2N[C@H]2C[C@](C)(O)C2)nc(C(N)=O)c1N [Compound 821] | 7.15
36 | Cc1ccc2[nH]ncc2c1-c1nc(-c2cccnc2Nc2nc(F)ccc2F)nc(C(N)=O)c1O [Compound 806, 2-(2-((3,6-difluoropyridin-2-yl)amino)pyridin-3-yl)-5-hydroxy-6-(5-methyl-1H-indazol-4-yl)pyrimidine-4-carboxamide] | < 5.00
37 | Cc1ccc2[nH]ncc2c1-c1nc(-c2cc(F)cnc2N[C@@H]2CC[C@@H](O)C2)nc(C(N)=O)c1N [Compound 851] | 7.36
38 | Cc1ccc2[nH]ncc2c1-c1nc(-c2cc(F)cnc2N[C@H]2CCOC[C@@H]2O)nc(C(N)=O)c1N [Compound 801] | < 5.00
39 | Cc1ccc2[nH]ncc2c1-c1nc(-c2cc(F)cnc2NC2CC(O)C2(C)C)nc(C(N)=O)c1N (stereo not shown) [Compound 823] | 7.44
40 | Cc1c(F)cc2[nH]ncc2c1-c1nc(-c2cccnc2NCC(F)(F)F)nc(C(N)=O)c1N [Compound 849] | 6.76

The remaining lines, values ahead:

Row | pIC50 | Compound
41 | 7.30 | NC(=O)c1nc(-c2ccc(F)cc2Nc2ncccn2)nc(-c2c(Cl)ccc3[nH]ncc23)c1N [Compound 949]
42 | 7.64 | Cc1ccc2[nH]ncc2c1-c1nc(-c2ccc(F)nc2Nc2ncccc2C(F)F)nc(C(N)=O)c1N [Compound 945]
43 | 8.70 | Cc1ccc2[nH]ncc2c1-c1nc(-c2ccncc2Nc2ncccc2F)nc(C(N)=O)c1N [Compound 938]
44 | 6.73 | [2H]C([2H])([2H])c1ccc2[nH]ncc2c1-c1nc(-c2ccc(C3CC3)nc2Nc2ncccn2)nc(C(N)=O)c1N [Compound 974, 5-amino-2-(6-cyclopropyl-2-(pyrimidin-2-ylamino)pyridin-3-yl)-6-(5-(methyl-d3)-1H-indazol-4-yl)pyrimidine-4-carboxamide]
45 | 6.82 | Cc1ccc(-c2nc(C(N)=O)c(N)c(-c3c(F)ccc4[nH]ncc34)n2)c(Nc2ncccn2)n1 [Compound 953]
46 | 6.18 | Cc1ccc2[nH]ncc2c1-c1nc(-c2cn(C)nc2Nc2ncccn2)nc(C(N)=O)c1N [Compound 926]
47 | 7.43 | Cc1ccc2[nH]ncc2c1-c1nc(-c2ccnnc2Nc2ncccc2F)nc(C(N)=O)c1N [Compound 886, 5-amino-2-(3-((3-fluoropyridin-2-yl)amino)pyridazin-4-yl)-6-(5-methyl-1H-indazol-4-yl)pyrimidine-4-carboxamide]
48 | 6.63 | Cc1ccc2[nH]ncc2c1-c1nc(-c2ccc(F)cc2N[C@H]2C[C@@H](O)C2)nc(C(N)=O)c1N [Compound 860]
49 | 7.46 | Cc1ccc2[nH]ncc2c1-c1nc(-c2cnsc2NC2CCOCC2)nc(C(N)=O)c1N [Compound 856]
50 | 7.41 | Cc1cc(F)c2[nH]ncc2c1-c1nc(-c2cccnc2NC2CC2)nc(C(N)=O)c1N [Compound 871]
51 | 8.15 | Cc1c(F)cc2[nH]ncc2c1-c1nc(-c2ccc(F)nc2Nc2nc(C(F)F)ccc2F)nc(C(N)=O)c1N [Compound 858]
52 | 6.69 | Cc1ccc2[nH]ncc2c1-c1nc(-c2ccc(F)nc2Nc2cccnc2F)nc(C(N)=O)c1N [Compound 917]
53 | 6.75 | NC(=O)c1nc(-c2cccnc2NCC(F)(F)F)nc(-c2c(Cl)ccc3[nH]ncc23)c1N [Compound 912]
54 | 8.30 | [2H]C([2H])([2H])c1ccc2[nH]ncc2c1-c1nc(-c2ccc(F)nc2Nc2ncccc2F)nc(C(N)=O)c1N [Compound 930]
55 | 6.57 | Cc1ccc2[nH]ncc2c1-c1nc(-c2ccc(F)cc2Nc2ccnc(C3CC3)n2)nc(C(N)=O)c1N [Compound 940]
56 | 6.84 | Cc1ccc2[nH]ncc2c1-c1nc(-c2ccc(C(F)F)nc2Nc2ncccn2)nc(C(N)=O)c1N [Compound 928]
57 | 7.66 | Cc1ccc(Cl)nc1Nc1nc(F)ccc1-c1nc(C(N)=O)c(N)c(-c2c(C)ccc3[nH]ncc23)n1 [Compound 943]
58 | 8.15 | Cc1cc(F)c2[nH]ncc2c1-c1nc(-c2ccc(F)nc2Nc2nc(F)ccc2F)nc(C(N)=O)c1N [Compound 879]

Same assay, conditions: 2 h compound incubation, read-out: FUOV-1 CDK1 pThr14 IC50

Row | pIC50 | Compound
59 | 7.62 | Cc1ccc2[nH]ncc2c1-c1cc2c(oc3ccc(NC4CCOCC4)nc32)c(C(N)=O)c1N (atropisomer, axis not shown) [Compound 762]

Same assay, conditions: 2 hours with compound, read-out: FUOV-1 CDK1 pThr14 IC50

Row | pIC50 | Compound
60 | 7.09 | Cc1ccc2[nH]ncc2c1-c1nc(-c2cc(F)cnc2N[C@@H]2C[C@@H]3CC[C@H]2O3)nc(C(N)=O)c1N [Compound 890]
61 | 7.66 | Cc1ccc2[nH]ncc2c1-c1nc(-c2cc(F)cnc2N[C@@H]2C[C@@H]3CC[C@H]2O3)nc(C(N)=O)c1N [Compound 837]
